In assay [1] the target is T1, Cyclin-dependent kinase 7 (Homo sapiens, UniProt P50613). The assay is described as follows: Inhibition of CDK7 (unknown origin).
Assay [2] has as its target T2, Cyclin-dependent kinase 1 (Homo sapiens, UniProt P06493).
The target in assay [3] is T3, Cyclin-dependent kinase 2 (Homo sapiens, UniProt P24941).
For assay [4], the target named is T4, Cyclin-dependent kinase 5 (Homo sapiens, UniProt Q00535).
In assay [5] the target is T5, Cyclin-dependent kinase 9 (Homo sapiens, UniProt P50750).
The test system of a further assay is MGC-803. The assay is described as follows: Cytotoxicity against human MGC803 cells assessed as reduction in cell viability. It counts as functional, cell-based.
The test system of the next assay is AGS. The experiment in a line: Cytotoxicity against human AGS cells assessed as reduction in cell viability. In kind it is functional, cell-based.
Another assay has as its system BGC-823. The experiment in a line: Anti-tumor activity against human BGC823 cells xenografted in invivo animal model assessed as reduction in tumor growth at 10 mg/kg, ip relative to control. It counts as functional. Conditions: BGC-823, ip, read-out: TGI. Background: A xenograft is tissue or cells of one species grown in another, often human tumour cells in immunodeficient mice.

Assay [6] concerns the target T6, Cyclin-dependent kinase 4 (Homo sapiens, UniProt P11802). The assay is described as follows: Inhibition of CDK4 (unknown origin).
For assay [7], the target named is T7, Cyclin-dependent kinase 6 (Homo sapiens, UniProt Q00534). The experiment in a line: Inhibition of CDK6 (unknown origin).
In a further assay the target is CDK7/Cyclin H/MNAT1 (Homo sapiens, UniProt P50613). The experiment in a line: Inhibition of CDK7/CycH/MAT1 (unknown origin) by luciferase reporter gene assay. In kind it is protein-complex assay.
Assay [8] has as its target T2, Cyclin-dependent kinase 1. The experiment in a line: Inhibition of CDK1 (unknown origin) by luciferase reporter gene assay. (In general: A reporter such as luciferase makes a cellular process visible.)
In assay [9] the target is Cyclin-dependent kinase 2/cyclin E1 (Homo sapiens, UniProt P24941). The assay is described as follows: Inhibition of CDK2/cycE1 (unknown origin) by luciferase reporter gene assay. In kind it is protein-complex assay.
The target in assay [10] is T6, Cyclin-dependent kinase 4. The assay is described as follows: Inhibition of CDK4 (unknown origin) by luciferase reporter gene assay.
Assay [11] deals with T4, Cyclin-dependent kinase 5. The experiment in a line: Inhibition of CDK5 (unknown origin) by luciferase reporter gene assay.
The target of assay [12] is T7, Cyclin-dependent kinase 6. The experiment in a line: Inhibition of CDK6 (unknown origin) by luciferase reporter gene assay.
The test system of the next assay is MDA-MB-231. The assay is described as follows: Cytotoxicity against human MDA-MB-231 cells assessed as reduction in cell viability. In kind it is functional, cell-based.
A further assay has as its system MDA-MB-468. The experiment in a line: Cytotoxicity against human MDA-MB-468 cells assessed as reduction in cell viability. In kind it is functional, cell-based.
The next assay concerns Jurkat. The experiment in a line: Cytotoxicity against human Jurkat cells assessed as reduction in cell viability. In kind it is functional, cell-based.
The test system of assay [13] is KOPTK1. The experiment in a line: Cytotoxicity against human KOPTK1 cells assessed as reduction in cell viability. It counts as functional, cell-based.
Assay [14] relates to KOPTK1. The experiment in a line: Anti-tumor activity against human KOPTK1 cells xenografted in invivo animal model assessed as reduction in tumor growth at 10 mg/kg, ip relative to control. It counts as functional. The conditions noted are these: read-out: TGI.
In assay [15] the target is T1, Cyclin-dependent kinase 7. The experiment in a line: Inhibition of CDK7 (unknown origin) after 4 hrs.
For assay [16], the target named is T5, Cyclin-dependent kinase 9. The experiment in a line: Inhibition of CDK9 (unknown origin) after 4 hrs.
Assay [17] addresses T3, Cyclin-dependent kinase 2. The assay is described as follows: Inhibition of CDK2 (unknown origin) after 4 hrs.

T5 sequence (P50750 whole entry): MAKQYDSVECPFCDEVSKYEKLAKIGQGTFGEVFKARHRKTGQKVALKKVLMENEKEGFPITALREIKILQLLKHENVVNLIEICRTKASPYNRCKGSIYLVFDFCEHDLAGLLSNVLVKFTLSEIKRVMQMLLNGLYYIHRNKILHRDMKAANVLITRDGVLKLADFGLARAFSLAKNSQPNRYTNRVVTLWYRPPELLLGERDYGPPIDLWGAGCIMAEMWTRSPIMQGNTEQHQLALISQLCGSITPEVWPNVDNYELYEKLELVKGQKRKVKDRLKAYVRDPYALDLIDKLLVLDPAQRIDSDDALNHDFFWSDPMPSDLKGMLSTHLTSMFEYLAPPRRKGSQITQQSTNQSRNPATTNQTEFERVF
T7 sequence (Q00534 whole entry): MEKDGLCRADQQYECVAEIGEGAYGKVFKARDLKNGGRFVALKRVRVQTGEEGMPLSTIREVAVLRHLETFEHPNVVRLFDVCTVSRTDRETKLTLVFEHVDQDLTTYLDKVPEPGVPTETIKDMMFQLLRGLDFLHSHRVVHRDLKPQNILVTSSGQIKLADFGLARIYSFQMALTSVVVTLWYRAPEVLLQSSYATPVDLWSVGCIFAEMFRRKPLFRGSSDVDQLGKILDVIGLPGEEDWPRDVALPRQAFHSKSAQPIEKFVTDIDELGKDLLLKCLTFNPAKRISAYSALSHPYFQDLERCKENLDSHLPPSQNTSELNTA
T1 sequence (P50613 whole entry): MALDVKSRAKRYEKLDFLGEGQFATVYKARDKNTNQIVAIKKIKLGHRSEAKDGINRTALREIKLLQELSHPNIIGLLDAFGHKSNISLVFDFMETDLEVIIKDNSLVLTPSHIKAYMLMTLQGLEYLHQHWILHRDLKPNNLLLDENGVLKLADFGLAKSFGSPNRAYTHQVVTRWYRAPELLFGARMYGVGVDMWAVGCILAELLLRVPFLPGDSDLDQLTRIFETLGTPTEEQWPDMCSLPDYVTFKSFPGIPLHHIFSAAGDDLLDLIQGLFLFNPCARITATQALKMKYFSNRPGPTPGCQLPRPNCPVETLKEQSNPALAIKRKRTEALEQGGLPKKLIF
T2 sequence (P06493 whole entry): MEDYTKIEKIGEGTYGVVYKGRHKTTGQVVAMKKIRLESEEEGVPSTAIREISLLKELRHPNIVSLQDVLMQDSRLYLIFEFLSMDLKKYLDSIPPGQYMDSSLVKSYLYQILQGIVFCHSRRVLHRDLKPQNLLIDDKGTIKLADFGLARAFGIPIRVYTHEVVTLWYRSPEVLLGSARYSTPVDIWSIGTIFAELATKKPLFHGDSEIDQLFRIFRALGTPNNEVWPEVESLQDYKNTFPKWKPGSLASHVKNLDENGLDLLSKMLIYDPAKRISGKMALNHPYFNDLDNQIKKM
Chain of CDK7/Cyclin H/MNAT1 (P51946 whole entry): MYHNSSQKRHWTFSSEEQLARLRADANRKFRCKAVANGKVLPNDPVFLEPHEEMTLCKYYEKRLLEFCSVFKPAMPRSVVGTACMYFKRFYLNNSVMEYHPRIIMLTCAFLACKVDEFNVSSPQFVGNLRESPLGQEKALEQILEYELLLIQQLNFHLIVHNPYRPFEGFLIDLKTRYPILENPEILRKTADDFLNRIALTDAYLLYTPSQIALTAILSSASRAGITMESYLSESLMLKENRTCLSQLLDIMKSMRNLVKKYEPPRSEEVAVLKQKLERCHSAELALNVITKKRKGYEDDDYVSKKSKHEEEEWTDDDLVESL
Chain of CDK7/Cyclin H/MNAT1 (P50613 whole entry): as the sequence (P50613 whole entry) above
Chain of CDK7/Cyclin H/MNAT1 (P51948 whole entry, further chain): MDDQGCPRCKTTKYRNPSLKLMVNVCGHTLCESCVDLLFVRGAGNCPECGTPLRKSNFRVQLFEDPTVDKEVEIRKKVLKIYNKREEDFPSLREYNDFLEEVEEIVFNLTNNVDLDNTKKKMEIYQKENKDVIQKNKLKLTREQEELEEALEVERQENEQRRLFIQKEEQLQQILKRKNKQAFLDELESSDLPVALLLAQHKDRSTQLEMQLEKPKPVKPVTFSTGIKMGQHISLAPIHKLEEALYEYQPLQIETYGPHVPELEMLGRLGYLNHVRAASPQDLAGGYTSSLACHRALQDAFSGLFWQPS
T6 sequence (P11802 whole entry): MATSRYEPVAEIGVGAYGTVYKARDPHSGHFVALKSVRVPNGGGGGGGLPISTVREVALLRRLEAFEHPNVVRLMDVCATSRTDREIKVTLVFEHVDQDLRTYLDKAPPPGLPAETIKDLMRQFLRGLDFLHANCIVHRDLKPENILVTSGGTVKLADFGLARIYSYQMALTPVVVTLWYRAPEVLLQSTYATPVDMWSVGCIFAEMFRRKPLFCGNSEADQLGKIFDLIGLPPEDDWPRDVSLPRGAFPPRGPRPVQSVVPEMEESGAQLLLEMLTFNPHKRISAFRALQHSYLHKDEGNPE
T4 sequence (Q00535 whole entry): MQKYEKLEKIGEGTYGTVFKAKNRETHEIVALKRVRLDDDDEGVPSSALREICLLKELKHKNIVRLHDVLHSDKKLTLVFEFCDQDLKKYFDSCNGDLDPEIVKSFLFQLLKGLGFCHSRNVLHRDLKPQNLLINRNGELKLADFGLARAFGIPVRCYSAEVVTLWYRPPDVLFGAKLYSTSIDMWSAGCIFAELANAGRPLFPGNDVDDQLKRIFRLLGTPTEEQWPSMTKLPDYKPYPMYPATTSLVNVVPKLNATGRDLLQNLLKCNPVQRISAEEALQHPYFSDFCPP

One may read the IC50 as the concentration needed to halve the response being measured. In the case of `CN(C)C/C=C/C(=O)Nc1cccc(C(=O)Nc2cccc(Nc3ncc(Cl)c(-c4c[nH]c5ccccc45)n3)c2)c1`, the IC50 in assay [1] turned out to be 0.027 µM; in assay [2] it was 0.0139 µM; in assay [3], 0.0969 µM; in assay [4] it was 0.222 µM; in assay [5], 0.134 µM; in the assay on MGC-803 it was 0.74 µM. For the same molecule, the IC50 in the assay on AGS amounted to 0.19 µM. Also, the inhibition in vivo at 10 mg/kg in the assay with BGC-823 worked out at 50%.
With `CC(C)c1cnn2c(NCc3ccccc3-n3cccn3)nc(OC3CCCNC3)nc12` (stereo unspecified), the IC50 was 0.00013 µM in assay [1]; 0.053 µM in [2]; 0.0064 µM in assay [3]; above 10 µM in assay [6]; above 10 µM in assay [7]; 1.71 µM in [5].
The molecule `CC(C)c1cnn2c(NCc3ccccc3)cc(NC[C@H]3CCCC[C@@H]3O)nc12` showed a half-maximal inhibitory concentration (IC50) on CDK7/Cyclin H/MNAT1 of 0.687 µM.
Regarding `CC(C)c1cnn2c(NCc3ccccc3)cc(NCC3CCNCC3)nc12`, the IC50 against CDK7/Cyclin H/MNAT1 stood at 0.31 µM.
`CC(C)c1cnn2c(NCc3ccccc3)cc(NC[C@]3(CO)CCNC3)nc12`: the IC50 was 0.014 µM on CDK7/Cyclin H/MNAT1, 0.041 µM in assay [8] and 0.001 µM in [9].
The molecule `CC(C)c1cnn2c(NCc3ccccc3)cc(NC[C@]3(O)CCNC[C@H]3O)nc12` (racemic) registered an IC50 in [9] of 2.03 µM.
As to `C=CC(=O)Nc1ccc(C(=O)Nc2ccc(Nc3n[nH]c4c3CN(C(=O)N[C@H](CN(C)C)c3ccccc3)C4(C)C)cc2)cc1`, the IC50 in assay [1] is below 0.1 µM.
Consider `CC(C)c1cnn2c(NCc3ccccc3N(C)C)nc(OC3CCN(C)CC3)nc12`, for which the IC50 in [1] was below 0.005 µM; in assay [2] it was above 10 µM; in [3], 3.9 µM; in assay [6], above 10 µM; in assay [7], above 10 µM; in assay [5], 7.45 µM.
Regarding `CC(C)c1cnn2c(NCc3ccccc3)cc(NC[C@@H]3CCNC[C@H]3O)nc12`, the 50% inhibitory concentration (IC50) in assay [8] turned out to be 1.52 µM; in assay [10], 42 µM; in assay [11], 9 µM; in assay [12], 32.1 µM; in the assay with MDA-MB-231, 1.3 µM; with MDA-MB-468, 1.5 µM.
Turning to `C=CC(=O)Nc1ccc(C(=O)Nc2n[nH]c3c2CN(C(=O)N[C@H](CN(C)C)c2ccccc2)C3(C)C)cc1`, the IC50 in assay [1] is above 0.1 µM.
`CN(C)CCCC(=O)Nc1ccc(C(=O)Nc2cccc(Nc3ncc(Cl)c(-c4c[nH]c5ccccc45)n3)c2)cc1`: the IC50 in [1] is 0.194 µM.
Regarding `CC(C)c1cnn2c(NCc3cccc4[nH]ncc34)nc(OC3CCCNC3)nc12` (stereo unspecified), the IC50 in assay [1] was below 0.005 µM; in assay [3], below 0.05 µM; in [5], below 0.05 µM.
For the molecule `Clc1cnc(N[C@@H]2CCCNC2)nc1-c1c[nH]c2ccccc12`, the IC50 is 0.02 to 0.2 µM in assay [1], above 0.2 µM in assay [3] and above 0.2 µM in [5].
For `C=CC(=O)Nc1ccc(C(=O)Nc2cccc(Nc3n[nH]c4c3CN(C(=O)N[C@H](CN(C)C)c3ccccc3)C4(C)C)c2)cc1`, the IC50 in assay [1] came out at 0.02 µM; with Jurkat it was 0.002 µM.
In the case of `CN(C)C/C=C/C(=O)Nc1ccc(C(=O)Nc2cccc(Nc3ncc(Cl)c(-c4c[nH]c5ccccc45)n3)c2)cc1`, in the assay on KOPTK1 [13], the IC50 was 0.001 µM. In addition, the inhibition in vivo at 10 mg/kg in the assay on KOPTK1 [14] came to 10%.
Turning to `Clc1cnc(N[C@H]2CCCNC2)nc1-c1c[nH]c2ccccc12`, the IC50 in [1] was below 0.02 µM; in [3], above 0.2 µM; in [5], above 0.2 µM.
For the molecule `Clc1cnc(NC2CCCCC2)nc1-c1c[nH]c2cccnc12`, the IC50 is 0.02 µM in [15] and 0.02 to 0.2 µM in [16].
Turning to `CC(C)c1cnn2c(NCc3cccc4c3cnn4C)nc(OC3CCCNC3)nc12` (stereo unspecified), the values for the IC50 in assay [1], in assay [3] and in assay [5] were below 0.005 µM, below 0.05 µM and below 0.05 µM, respectively.
Regarding `FC(F)(F)c1cnc(N[C@H]2CCCNC2)nc1-c1n[nH]c2ccccc12`, the IC50 in [15] was below 0.02 µM; in [17] it was above 0.2 µM; in assay [16], 0.02 to 0.2 µM.

The record behind these values is ChEMBL document CHEMBL4402527, “Recent advances in the development of cyclin-dependent kinase 7 inhibitors” (Eur J Med Chem, 2019).
